Experimental data reported in US12571052B2, “Immunomodulatory RNA” (THE TRUSTEES OF THE UNIVERSITY OF PENNSYLVANIA, priority 2017, dated 2026).
“Also recorded” adds a separate entry of the source.

What was measured:
recombinant RIG-I = target: T1, recombinant RIG-I (Homo sapiens, UniProt O95786); assay: RIG-I ATPase assay (ATP hydrolysis); format: biochemical; details: RNA added to recombinant RIG-I, equimolar amounts
T1 sequence (O95786 1-925): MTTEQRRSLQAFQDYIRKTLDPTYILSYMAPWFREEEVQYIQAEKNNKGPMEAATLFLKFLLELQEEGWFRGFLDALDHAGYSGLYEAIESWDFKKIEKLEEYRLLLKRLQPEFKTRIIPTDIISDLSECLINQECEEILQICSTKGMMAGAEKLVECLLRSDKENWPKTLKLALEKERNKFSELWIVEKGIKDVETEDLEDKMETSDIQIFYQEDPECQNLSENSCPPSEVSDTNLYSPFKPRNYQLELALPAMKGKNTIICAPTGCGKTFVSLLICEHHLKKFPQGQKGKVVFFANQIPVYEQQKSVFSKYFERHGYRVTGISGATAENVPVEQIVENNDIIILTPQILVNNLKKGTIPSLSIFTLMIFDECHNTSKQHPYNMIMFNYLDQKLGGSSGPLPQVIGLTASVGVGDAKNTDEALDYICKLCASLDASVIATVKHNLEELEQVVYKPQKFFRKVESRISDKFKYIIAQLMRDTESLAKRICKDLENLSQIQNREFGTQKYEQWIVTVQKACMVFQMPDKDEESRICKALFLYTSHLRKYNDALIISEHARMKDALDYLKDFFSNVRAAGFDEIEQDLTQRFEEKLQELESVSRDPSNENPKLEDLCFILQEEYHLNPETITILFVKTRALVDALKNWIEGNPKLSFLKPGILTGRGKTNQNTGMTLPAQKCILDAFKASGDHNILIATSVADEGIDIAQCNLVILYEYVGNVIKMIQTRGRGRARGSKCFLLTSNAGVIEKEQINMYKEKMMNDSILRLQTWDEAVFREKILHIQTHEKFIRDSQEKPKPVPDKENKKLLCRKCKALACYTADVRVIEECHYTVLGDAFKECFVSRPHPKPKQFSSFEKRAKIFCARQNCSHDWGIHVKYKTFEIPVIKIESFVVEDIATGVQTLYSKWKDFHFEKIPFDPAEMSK
Description: RIG-I ATPase Assays. RIG-I ATPase assays were performed as previously described (Devarkar et al. (2016) Proc. Natl. Acad. Sci. 113, 596-601). In brief, increasing amounts of RNA (10-60 nM) were added to a constant quantity of RIG-I (5 nM) in the presence of 1 mM ATP. ATP hydrolysis was measured with the EnzChek Phosphate Assay Kit (ThermoFisher) after 60-90 minutes at 37° C. ATP hydrolysis was then measured by absorbance of 360 nm compared to background. A 19-mer 5′triphosphate dsRNA (Invivogen) and DVG396 were used as positive controls and a 19-mer 5′OH dsRNA (Invivogen) and an in vitro transcribed 300 bp ssRNA stretch of GAPDH (GAPDH300) were used as negative controls.

[1] = tested on: 1833 ISG-R breast cancer xenografts; assay: Intratumoral injection into subcutaneous 1833 xenografts; format: in vivo, athymic nude mice
Description: In Vivo Mouse Studies. For exosome injection studies, 1×10^6 1833 breast cancer cells were injected with Matrigel (Corning) into the flanks of 6-8 week old athymic nude mice and 10 μg of mono- or co-culture exosomes were directly injected into the tumors 3 times a week. For RNA injection studies, 50 ng of 7SL or GAPDH300 RNA encapsulated into RNAiMax liposomes were directly injected into the tumors 3 times a week. Subcutaneous tumor growth was measured by caliper. For lung colonization studies, 2×10^5 luciferase-labeled 4175 breast cancer cells were injected in the tail vein. Injections were confirmed by immediate imaging using a Xenogen IVIS 100 system. Serum was isolated from mice by cardiac puncture.

[2] = tested on: myeloid/dendritic cells in the spleen; assay: Spleen myeloid/dendritic cell activation after intravenous injection; format: in vivo, mice
B16-F10 tumor cells = assay: B16-F10/MEF co-implantation, tumor immune populations by flow cytometry; format: in vivo, C57BL/6 mice; details: for myeloid infiltration (macrophages, MDSCs) into the tumor microenvironment: tumors harvested 13 days later
Description: Mice were implanted with tumors as described FIGS. 25A-25B. Tumors were harvested 13 days later and assessed for infiltration of macrophages or myeloid derived suppressor cells (MDSCs). Macrophages are considered Lin−, F4/80+, and CD11b+ cells. MDSCs are considered Lin−, F4/80−, CD11c−, CD11b+, and Ly6C+ cells. Tumors were treated with anti-CTLA4 blocking antibody (FIG. 26D) as described in FIGS. 25A and 25B, and tumors were harvested at d15 to measure M2 polarization of macrophages as marked by CD206.
Furthermore, mice were implanted with the same tumors and subsequently treated with the CSF1R inhibitor BLZ945. Polarization of macrophages and frequency of CD103+DCs were tested.
In addition, mice were implanted with tumors and treated with anti-CTLA4+/−CSF1Ri BLZ945. Tumors were harvested 13 days later and immune populations were assessed using an unbiased clustering of flow cytometry data.
Mice were implanted with B16-F10 tumor cells mixed 1:1 with MEFs or MEFs co-expressing SRP9/14 (FIG. 35B). Tumors were harvested 2 weeks post-injection and analyzed for immune cell populations. Unshielded RN7SL1 increased the frequency of dendritic cells, the percentage of CD103+ dendritic cells, the percentage of CD69+CD8+ T cells, and the percentage of PD1+CD8+ T cells in tumors (FIG. 35C). […] Without wishing to be bound by theory, a CSF1R inhibitor blocks M2 polarization and may synergize with unshielded RN7SL1.

[3] = tumors harvested 2 weeks post-injection

Substance: RN7SL1: Human RN7SL1 (7SL, srpRNA) RNA, 5'ppp, in vitro transcribed or secreted unshielded in exosomes; SEQ ID NO: 2
- RIG-I ATP helicase activity as measured by ATP hydrolysis (recombinant RIG-I): directly binds recombinant RIG-I; also recorded: comparable to an equimolar amount of Sendai virus-derived RNA (DVG396)
- tumor growth ([1]; 50 ng liposome-encapsulated RNA intratumorally 3 times a week, RIG-I WT tumors): enhance tumor growth in a RIG-I-dependent manner
- tumor growth ([1]; 50 ng liposome-encapsulated RNA intratumorally, RIG-I KO tumors): no effect was observed
- ISG expression in tumors ([1]; tumors expressing WT RIG-I, human specific primers): an increase in ISG expression
- myeloid/dendritic cell maturation and activation (MHCII+ and CD86+) [2]: promote immune cell activation in the neutral immune environment of mouse spleens
- T cell activation (B16-F10 tumor cells; dependent on MyD88): enhanced T cell activation
- percentage of CD69+CD8+ T cells (B16-F10 tumor cells; [3]): increased
- percentage of CD103+ dendritic cells (B16-F10 tumor cells; [3]): increased
- percentage of PD1+CD8+ T cells (B16-F10 tumor cells; [3]): increased
- percentages of macrophages and MDSCs in CD45+ cells (B16-F10 tumor cells; [3]): also increased
- frequency of dendritic cells in tumors (B16-F10 tumor cells; tumors harvested 2 weeks post-injection, listed as Unshielded RN7SL1): increased
- frequency of dendritic cells in tumors (B16-F10 tumor cells; tumors harvested 2 weeks post-injection, listed as unshielded 7SL1): increased the frequency of DCs in vivo
- myeloid infiltration (macrophages, MDSCs) into the tumor microenvironment (B16-F10 tumor cells): triggered the infiltration of macrophages and MDSCs into the tumor microenvironment
- myeloid infiltration (macrophages, MDSCs) into the tumor microenvironment (B16-F10 tumor cells; listed as unshielded 7SL): drives myeloid infiltration into the tumor microenvironment
